Results: patent US20240327488A1, “CONNEXIN-46 PEPTIDE MODULATOR” (UNIVERSIDAD DEL DESARROLLO, priority 2023, published 2024)

What was measured:
Type in all cases: cell-based, human
HeLa Cx46-GFP cells = assay: Tumor sphere formation on non-adherent surface
Source text: (B) Tumor spheres growing is a technique used to determine the cancer stem cells capacity. Hela cells transfected with GFP for a monolayer of cells when they a seeded in a non-adherent surface, and moreover they died after 14 days in culture. However, Hela cells transfected with Cx46GFP do form tumor spheres which survive at last for 14 days. […] (D) graphical comparison between the size of tumor spheres at day 14 under control conditions (outer line) and treated with the peptide (inner line). Plot show the quantification of the tumor sphere size between time 0 and day 14, both under control condition (upper line) and with the peptide (lower line).
Mimetic peptides of the Cx46 domains that would interact with c-Src, Akt or PI3k were designed, synthesized and evaluated for their ability to inhibit the formation of tumor spheres in vitro in Hela cells overexpressing or not Cx46. Briefly, the experiments were done with the following protocols.
Cell line cultures: The HeLa cell line was grown in Dulbecco's Modified Eagle Medium (DMEM) supplemented with 10% fetal bovine serum (FBS) and 1% penicillin 10,000 U/mL, streptomycin sulfate […] (P/S) at 37° C., 5% CO2 and 95% humidity. Every 2 weeks the presence of mycoplasma was analyzed, by means of staining with DAPI. Infected cells were treated with BioMyc-1 (100×) for two weeks.
Cell Transfection: Cells were transfected using Lipofectamine 2000 (Invitrogen). For this HeLa cell cultures were grown to reach 60% confluence. Cells are washed with serum-free DMEM twice and finally exposed to OptiMem™ (Invitrogen) plus 1 μg cDNA. The cDNA for GFP-linked human Cx46 was purchased from Promega. The plasmid also has a resistance to G418, which is an antibiotic that serves for the selection of cells that stably express Cx46-GFP. Cx46 expression was monitored by Western blot and immunofluorescence analysis.
However, Hela cells transfected with Cx46-GFP form large tumor spheres that remain alive for at least 14 days (FIG. 2B; Annex 1). […]

[1] = test system: Akt phosphorylation in S473; assay: Western blot of Akt phosphorylation at S473
Description: (A) Representative Western blot showing, the levels of phosphorylation at S473 (pAKT), total AKT (AKT) and loading control (actin). Different concentrations of TAT-Cx46-Src were tested, ranging between […]. (B) Plot showing the relative levels of pAKT with respect to total AKT at different concentrations of TAT-Cx46-Src. (n=3).
Western blots: Cells were washed three times with phosphate buffered saline
(PBS) pH: 7.4 and then lysed with RIPA buffer (150 mM NaCl, 20 mM Tris pH: 7.4; 0.5% Sodium Desoxycholate, 0.1% Sodium Dodecyl Sulfate (SDS), 1% Nonidet P-40 and a protease inhibitor cocktail tablet). Proteins were quantified using the Qubit™ protein Assay Kit in a Qubit™ Fluorometer following the manufacturer's instructions (ThermoFisher). Subsequently, Laemli buffer (4×) (62.5 mM Tris pH 6.8; 25% glycerol, 2% SDS, 0.01% bromophenol blue and 5% β-mercaptoethanol) was added to the cell lysate and was heated at 95° C. for 3 min, in a thermoblock. About 50 μg of proteins were loaded into each well of a 10% polyacrylamide gel under denaturing conditions (SDS-PAGE). Then the proteins were transferred to a polyvinylidene difluoride (PVDF) membrane by wet transfer for 2 h at 100 V in Tris-Glycine 20% methanol buffer. The membranes were blocked with 5% skimmed milk in Buffer Tris and 0.05% Tween 20 (T-TBS) for 1 h at room temperature under shaking. […]

[2] = test system: Tumor spheres formed by Hela cells transfected with Cx46GFP; assay: Cell viability of tumor spheres (7-AAD uptake)
Description: Tumor spheres formed by Hela cells transfected with Cx46GFP were grown for 14 days. […] TAT-Cx46-Src was added every 3 days (every time that culture media was replaced). At day 14th, 10 mM 7-AAD was added to the extracellular media.

TAT-Cx46-Src: Mimetic peptide of the Cx46 404-410 C-terminal segment (MHQPPLP) fused with the cell-penetrating TAT peptide; blocks the Cx46/c-Src interaction (GRKKRRQRRRPQMHQPPLP)
decrease of the size of tumor spheres (HeLa Cx46-GFP cells; 100 μM, 10 days of treatment, HeLa Cx46-GFP cells): about 43% | tumor sphere size (HeLa Cx46-GFP cells; 100 mM added to the extracellular media every 3 days, Hela Cx46GFP, up to day 14 (FIG. 2C)): reduced tumor sphere size | inhibition of the cancer stem cells (CSC) functional phenotype (HeLa Cx46-GFP cells; Hela cells (FIGS. 2C and D)): strong inhibition | Akt phosphorylation levels in S473 ([1]; 100 μM, 24-h treatment, HeLa Cx46-GFP cells): strongly decreased | Akt phosphorylation in S473 (pAKT relative to total AKT) ([1]; concentrations ranging between 0-100 mM, n=3 (FIG. 3)): decreased Akt phosphorylation | uptake of 7-AAD dye ([2]; day 14, 10 mM 7-AAD in extracellular media, 100 mM peptide every 3 days, n=3): shown uptake of this Dye | death of cells in tumor spheres (cell viability studies) ([2]; treatment with 100 μM, HeLa Cx46-GFP tumor spheres): promotes the death of cells in the center of tumor spheres | cell death of Hela cells Cx46GFP ([2]; tumor spheres grown 14 days, 100 mM added every 3 days, n=3 (FIG. 4)): increase cell death
